Source: patent publication US10226435B2, “Compositions and methods for restoring the stratum corneum and treating dermatological diseases” (New York University, priority 2011, dated 2019)

Experiments:
[1] = system: human transplanted pancreatic adenocarcinomas; conditions: growth of human transplanted pancreatic adenocarcinomas; cited from earlier work
skin [2] = conditions: in vivo; cited from earlier work
[3] = system: dorsal skin of hairless mice; assay: β-damascenone-induced sunburn protection study in hairless mice; assay type: in vivo, mouse; conditions: read 5 days later
Text: The present experiment will be performed for evaluating the effectiveness and persistence of sunburn protection afforded by different doses and exposure regimens of a test terpene, β-damascenone. Female SKH-1 strain mice, obtained from Charles River Breeding Labs, Wilmington, Mass., will be fed per os various amounts of the terpene as indicated in the following Tables 4 and 5.

[4] = in vivo; cited from earlier work
[5] = system: mouse skin gene expression; assay: Gene expression microarray analysis of mouse skin; assay type: in vivo; conditions: for loricrin and filaggrin and vascular endothelial growth factor (VEGF) genes / matrix metalloproteinases: ingestion, animal models; for inflammation genes induced by UVR: per os daily for 4 days in 30 microL droplets prior to irradiation
Method: Animals for the histology and microarray analysis were euthanized 24 hours after 4 days of terpene pre-feed and the UVR exposure.
Gene expression microarray analysis was performed as follows: RNA was extracted from a 0.1 g sample of mouse skin and an equal quantity of keratinocytes by using the TRIZOL reagent (Invitrogen, Carlsbad, Calif., USA) according to the manufacture's instructions and 200 μg of total RNA was used for the isolation of poly A+mRNA by using Oligotex mRNA mini columns (QIAGEN, Valencia, Calif., USA). The final centrifugation was performed after the incubation with 1/10 volume of 3.0 M NaOAc, 2.5 volumes of ethanol and 1 μl glycogen (Boehringer Mannheim GmbH, Mannheim, Germany) at −20° C. overnight. Then the pellet was resuspended in diethylpyrocarbonate (DEPC)-treated water. RNA was labeled with biotin and hybridized to a Mouse genome 430_2 GeneChip® microarray (Affymetrix, Inc. Santa Clara, Calif., USA). Data from the Affymetrix mouse expression array chip were imported into the BRB-ArrayTools Version 3.3.0 developed by the Biometric Research Branch of the U.S. National Cancer Institute for normalization and analysis. […] A value of P≤0.001 was chosen as statistically significant. […] For these calculations the entire list of genes on the Affymetrix (mouse 430_2) microarray was used as the reference list.
Mice were treated with either UVR or UVR+beta-damascenone, and samples of tissue were removed from the dorsal skin for RNA extraction and analysis on an Affymetrix Microarray System utilizing mouse whole genome array chips Affy 430_2. The UVR sample served as the control in this preliminary experiment.

[6] = system: stratum corneum of Skh1 mouse skin; assay: Thickness of nucleated keratinocyte portion of epidermis versus stratum corneum, H&E histology; assay type: in vivo
Text: 1. Skin and epidermal thickness (as measured by histology);

skin [7] = conditions: in vivo; cited from earlier work; remark: listed apart in the source
[8] = system: skin of SKH1 hairless mice; assay: Sunburn (erythema) prevention by terpenes in UVR-exposed hairless mice; conditions: 4 daily 30 microL droplets per os before 15 minute exposure to 3.0 kJ/m2 UVR
Method: All experiments were performed with female hairless mice (SKH1) utilizing solar spectrum ultraviolet radiation (UVR). Each experiment was performed in triplicate including controls and UVR-exposed mice and included a total of 22 mice per experiment for a total of 66 mice. The protocol included untreated mice, UVR-irradiated mice as controls for the terpene treatments, UVR+terpene mice and terpene-only mice.
Four solar simulating FS-20 fluorescent lamps were used to deliver 3 kJ/m^2 measured by a calibrated International Light UV radiometer at the lamp distance between 20 to 24 cm. The UVR dose was selected to be just above the minimal erythemal dose for producing a ‘sunburn’ reaction in mouse skin (this is very similar to the minimal erythemal dose of fair-skinned humans).
Each terpene was given to each mouse per os (by mouth) in 15-30 μL droplets (˜15-30 μg) via micropipette once each day for 4 consecutive days prior to and/or subsequent to UVR exposure. Animals were observed and photographed every 24 hours for a period of 6-7 days after the irradiation. Each terpene was administered in pure form.
The UVR exposure of 3 kJ/m^2 was delivered seven (7) days after the last dose was administered. The animals were observed and photographed. […] Liponeate, a triglyceride fraction of coconut oil was used as a diluent. Concentration 1, 10 and 100% were tested. […]

breast cancer = conditions: rats, ionizing radiation or DMBA; cited from earlier work
skin inflammation = conditions: topical preventive treatment 3 days at 10 mg/kg/day before induction; cited from earlier work
colon cancer = conditions: rats, 1,2-dimethylhydrazine induced, 8 mg/kg, p<0.01; cited from earlier work
[9] = system: inflammation-relevant gene expression; conditions: rat skin, x-rays; cited from earlier work
[10] = Group 2, 20 uL × 4 by feeding tube, UVR 1.5 kJ/m^2 5 days after final dose
[11] = Group 3, 10 uL × 4 by feeding tube, UVR 1.5 kJ/m^2 5 days after final dose
[12] = Group 4 (replication of group 2), 20 uL × 4 by feeding tube, UVR 1.5 kJ/m^2 5 days after final dose
[13] = Group 5, 10 uL × 1 by feeding tube, UVR 1.5 kJ/m^2 5 days after dose
[14] = Group 6, 20 uL × 1 by feeding tube, UVR 1.5 kJ/m^2 5 days after dose
[15] = Group 7, 40 uL × 1 by feeding tube, UVR 1.5 kJ/m^2 5 days after dose
[16] = Groups 2 + 4 combined, 20 uL × 4, UVR 1.5 kJ/m^2 5 days after final dose
[17] = UVR+beta-damascenone relative to UVR only
[18] = Group 2, 20 μL ×1 oral, section 1 d after final administration, total 20 μL
[19] = Group 3, 10 μL ×4 oral, section 1 d after final administration, total 40 μL
[20] = Group 4, 20 μL ×4 oral, section 1 d after final administration, total 80 μL
[21] = Group 5, 80 μL ×1 oral, section 1 d after final administration, total 80 μL
[22] = Group 6, 20 μL ×1 oral, section 5 d after final administration, total 20 μL
[23] = Group 7, 10 μL ×4 oral, section 5 d after final administration, total 40 μL
[24] = Group 8, 80 μL ×1 oral, section 5 d after final administration, total 80 μL
[25] = Group 9, 20 μL ×4 oral, section 5 d after final administration, total 80 μL
[26] = Group 10, 10 μL ×4 oral, section 12 d after final administration, total 40 μL
[27] = Group 11, 20 μL ×4 oral, section 12 d after final administration, total 80 μL
[28] = day 5 after the exposures were completed

Question: For `CC(C)=CCC/C(C)=C/CO` [Geraniol], which “effectiveness relative to perillyl alcohol” value [1] is on record?
Answer: The value was “about 5 fold”.

Question: With `C/C=C/C(=O)C1=C(C)C=CCC1(C)C` [beta-damascenone] as the molecule, how does the phototoxicity or photoallergenity (skin [2]) read?
Answer: The phototoxicity or photoallergenity was “No phototoxicity or photoallergenity”.

Question: And the “Areas with no sunburn” value [3, 10]?
Answer: The value was 11.0.

Question: And the Areas with sunburn [3, 10]?
Answer: The Areas with sunburn was 1.0.

Question: What about the “Areas with no sunburn” value [3, 11] of the same molecule?
Answer: Its value is 6.0.

Question: What about the Areas with sunburn [3, 11] of the same molecule?
Answer: The Areas with sunburn was 2.0.

Question: And the “Areas with no sunburn” value [3, 12]?
Answer: The value was 8.0.

Question: What about the Areas with sunburn [3, 12] of the same molecule?
Answer: The Areas with sunburn was 0.0.

Question: And the “Areas with no sunburn” value [3, 13]?
Answer: Its value is 7.0.

Question: And the Areas with sunburn [3, 13]?
Answer: Its Areas with sunburn is 5.0.

Question: And the “Areas with no sunburn” value [3, 14]?
Answer: The value was 10.0.

Question: And the Areas with sunburn [3, 14]?
Answer: The Areas with sunburn was 2.0.

Question: And the “Areas with no sunburn” value [3, 15]?
Answer: Its value is 3.0.

Question: What about the Areas with sunburn [3, 15] of the same molecule?
Answer: Its Areas with sunburn is 1.0.

Question: What about the “Areas with no sunburn” value [3, 16] of the same molecule?
Answer: The value was 19.0.

Question: What about the Areas with sunburn [3, 16] of the same molecule?
Answer: The Areas with sunburn was 1.0.

Question: And the LD50 [4]?
Answer: Its LD50 is “greater than 2.0 g/kg”.

Question: What about the inflammation-relevant genes [5, 17] of the same molecule?
Answer: The inflammation-relevant genes was “strongly down-regulated”.

Question: What about the “number of gene categories significantly (p<0.05) down-regulated” value [5, 17] of the same molecule?
Answer: The value was 13.

Question: And the “only significantly (p<0.05) altered up-regulated category at level 4 of Gene Ontology Tree” value [5, 17]?
Answer: The value was “epidermal cell differentiation”.

Question: And the “loricrin and filaggrin and vascular endothelial growth factor (VEGF) genes” value [5]?
Answer: Its value is “upregulation”.

Question: And the matrix metalloproteinases [5]?
Answer: Its matrix metalloproteinases is “downregulation”.

Question: What about the “inflammation genes induced by UVR” value [5] of the same molecule?
Answer: Its value is “blocked”.

Question: What about the “Living Epidermis Thickness” value ([6]; Average (Groups 2-11)) of the same molecule?
Answer: The value was 34.6 arbitrary units.

Question: What about the “Stratum Corneum Thickness” value ([6]; Average (Groups 2-11)) of the same molecule?
Answer: The value was 21.0 arbitrary units.

Question: What about the “Living Epidermis Thickness” value [6, 18] of the same molecule?
Answer: The value was 35.0 arbitrary units.

Question: What about the “Stratum Corneum Thickness” value [6, 18] of the same molecule?
Answer: Its value is 20.0 arbitrary units.

Question: And the “Living Epidermis Thickness” value [6, 19]?
Answer: The value was 37.0 arbitrary units.

Question: And the “Stratum Corneum Thickness” value [6, 19]?
Answer: Its value is 15.3 arbitrary units.

Question: And the “Living Epidermis Thickness” value [6, 20]?
Answer: The value was 36.0 arbitrary units.

Question: And the “Stratum Corneum Thickness” value [6, 20]?
Answer: Its value is 17.8 arbitrary units.

Question: And the “Living Epidermis Thickness” value [6, 21]?
Answer: The value was 36.0 arbitrary units.

Question: And the “Stratum Corneum Thickness” value [6, 21]?
Answer: Its value is 16.3 arbitrary units.

Question: What about the “Living Epidermis Thickness” value [6, 22] of the same molecule?
Answer: The value was 38.5 arbitrary units.

Question: What about the “Stratum Corneum Thickness” value [6, 22] of the same molecule?
Answer: The value was 37.0 arbitrary units.

Question: What about the “Living Epidermis Thickness” value [6, 23] of the same molecule?
Answer: Its value is 40.2 arbitrary units.

Question: And the “Stratum Corneum Thickness” value [6, 23]?
Answer: The value was 20.2 arbitrary units.

Question: And the “Living Epidermis Thickness” value [6, 24]?
Answer: Its value is 36.2 arbitrary units.

Question: What about the “Stratum Corneum Thickness” value [6, 24] of the same molecule?
Answer: Its value is 25.5 arbitrary units.

Question: And the “Living Epidermis Thickness” value [6, 25]?
Answer: Its value is 32.5 arbitrary units.

Question: And the “Stratum Corneum Thickness” value [6, 25]?
Answer: The value was 21.2 arbitrary units.

Question: And the “Living Epidermis Thickness” value [6, 26]?
Answer: Its value is 30.7 arbitrary units.

Question: What about the “Stratum Corneum Thickness” value [6, 26] of the same molecule?
Answer: Its value is 18.7 arbitrary units.

Question: What about the “Living Epidermis Thickness” value [6, 27] of the same molecule?
Answer: Its value is 23.3 arbitrary units.

Question: And the “Stratum Corneum Thickness” value [6, 27]?
Answer: Its value is 21.7 arbitrary units.

Question: What about the “nucleated keratinocytes in the epidermis” value [6, 28] of the same molecule?
Answer: The value was “no corresponding increase”.

Question: What about the “thickness of the stratum corneum” value [6, 28] of the same molecule?
Answer: Its value is “highly significant increases”.

Question: What about the “stratum corneum thickness (FIG. 4)” value ([6]; mouse, in vivo) of the same molecule?
Answer: Its value is “consistently thickened”.

Question: And the skin irritation (skin [7])?
Answer: The skin irritation was “No skin irritation”.

Question: And the “cutaneous inflammation and erythema after UVR” value [8]?
Answer: The value was “blocked”.

Question: For `C=C(C)[C@H]1CC=C(C)CC1` [d-limonene], which “initiation of breast cancer” value (breast cancer) is on record?
Answer: The value was “almost completely prevented”.

Question: For `C=C(C)[C@@H]1CCC2=CC(=O)C[C@@H](C)[C@]2(C)C1` [nootkatone], which “loricrin and filaggrin and vascular endothelial growth factor (VEGF) genes” value [5] is on record?
Answer: Its value is “upregulation”.

Question: And the matrix metalloproteinases [5]?
Answer: The matrix metalloproteinases was “downregulation”.

Question: And the “inflammation genes induced by UVR” value [5]?
Answer: Its value is “blocked”.

Question: What about the “cutaneous inflammation and erythema after UVR” value [8] of the same molecule?
Answer: The value was “blocked”.

Question: Which results are given for `C=C(C)[C@@H]1CC=C(CO)CC1` [perillyl alcohol, reference compound]?
Answer: effect on skin inflammation (skin inflammation): significant effect; initiation of breast cancer (breast cancer): almost completely prevented

Question: Which “inhibition of colon cancer” value (colon cancer) does the source give for `Oc1ccc(C=Cc2cc(O)cc(O)c2)cc1` [resveratrol] here?
Answer: The value was 67%.

Question: Which “inflammation-relevant gene expression alterations blocked” value [9] does the source give for vitamin A here?
Answer: Its value is “about 80%”.
